# Experimental data as given in US20230382951A1, “BRAIN PENETRATING PEPTIDES” (BOARD OF REGENTS, THE UNIVERSITY OF TEXAS SYSTEM, priority 2020, published 2023).
# System: hCMEC/D3 cells
# Settings: third round of biopanning
# Protocol: CX7C-presenting M13 phage biopanning against hCMEC/D3 cells. A M13 phage CX7C library was used to pan against established BBB model hCMEC/D3 in vitro to identify potential brain-penetrating peptides. hCMEC/D3 cells (CELLutions Biosystems Inc.) were cultured in EndoGRO medium (Millipore, #SCME004) on Collagen I (Fisher Scientific, #44310001) coated Culture Ware (150 μg/ml, coated for at least 1 h at 37° C.)^110. […] To establish the cell monolayer on the transwell plate setup, hCMEC/D3 cells (passage 27-30) were seeded on a pre-coated collagen I (100 μg/ml for 3 h) coated 12-well transwell plate (Corning, #3401) at a density of 1.5-2.0*10^5 cells/cm^2 for 12-15 days^49. Transepithelial electrical resistance measurements and permeability assay with small tracer molecule sodium fluorescein were used to monitor the tightness of hCMEC/D3 monolayer. Prior to biopanning, hCMEC/D3 cells were incubated in fetal bovine serum depleted medium for 1 h at 37° C., and then 10^11 plaque forming units (pfu) of M13 phage CX7C library (NEB, #E8120S) was added to the donor compartment of the transwell and incubated for 1 h at 37° C. […]
# The NGS data from two replicates of MiSeq run were analyzed on Stampede, a supercomputer run on Texas Advanced Computing Center at UT-Austin. First, to confirm the sequence quality and trim the low-quality sequence reads, fastqc and fastx_toolkit were used on the dataset. […]
substance,measurement,value
NAGHLSQ [Pep-1],frequency relative to second most frequent peptide Pep-2,approximately five-fold higher
